Results reported in US5447862A, “Pectin lyase genes of aspergillus niger” (Ciba-Geigy Corporation, priority 1987, dated 1995).

Test system: Aspergillus niger pectin lyase B (PLB), purified from pelB transformant B13, SEQ ID NO: 6
Conditions: EDTA 3 mM final concentration in the reaction mixture; enzyme reactivated by excess of Ca2+ ions
Protocol: Both highly esterified pectin (d.e. 94%) as well as pectins with lower degree of esterification like Brown Ribbon apple pectin (d.e. 72.8%; Obipektin AG Bischoffzell) can be used as substrate.
These values are determined according to the procedure of van Houdenhoven (ref. 18) using a Mc Ilvaine buffer of pH 8.0 (μ=0.5).

## O=C([O-])CN(CCN(CC(=O)O)CC(=O)O)CC(=O)[O-].[Na+].[Na+] [EDTA, ethylenediaminetetraacetic acid disodium salt]
  inhibition of the pectin lyase reaction by EDTA: inhibited
